Legend:
[1] = system: HT-29 SF cells; experiment: DHEA effect on cell cycle distribution (flow cytometry); type: cell-based, human; conditions: 25, 50, or 200 μM DHEA; 24, 48, 72 hours
Method: Cells were plated at 10^5/60-rm dish in duplicate. […] Cultures were trypsinized following […] and fixed and stained using a modification of a procedure of Bauer et al., Cancer Res., 46, 3173-3178 (1986). Briefly, cells were collected by centrifugation and resuspended in cold phosphate-buffered saline. Cells were fixed in 70% ethanol, washed, and resuspended in phosphate-buffered saline.
After 24, 48, and 72 hours, cells were harvested, fixed in ethanol, and stained with propidium iodide, and the DNA content/cell was determined by flow cytometric analysis. The percentage of cells in G1, S, and G2M phases was calculated using the Cellfit cell cycle analysis program. S phase is marked by a quadrangle for clarity. Representative histograms from duplicate determinations are shown. The experiment was repeated three times.
A transient increase in G2M phase cells was apparent after 48 hours.

[2] = system: G6PDH; experiment: Enzymatic assay of purified G6PDH; conditions: in vitro; compared to control
Method: All experiments were repeated 4 times.
A second group was added different concentrations of a CoQ of long side chain (in triplicate), and a third group received a CoQ of short side chain (in triplicate), both at various doses in the μM range.
The reaction was started by addition of the enzyme, and the increase in absorbance at 340 nm was measured for 5 minutes. Each data point was conducted in triplicate, and the full experiment was repeated 4 times.

[3] = system: HT-29 SF cells; experiment: DHEA effect on cell growth (Coulter counter)
Method: Cell cultures, HT-29 SF cells, which represent a subline of HY-29 cells (ATCC, Rockville, Md.) and are adapted for growth in completely defined serum-free PC-1 medium (Ventrex, Portland, Me.), were obtained. Stock cultures were maintained in this medium at 37° in a humidified atmosphere containing 5% CO2.

C[C@]12CC[C@H](O)CC1=CC[C@@H]1[C@@H]2CC[C@]2(C)C(=O)CC[C@@H]12 [DHEA, 3β-hydroxyandrost-5-en-17-one]
effect on cell cycle distribution [1]: G1 block | inhibition of activity of purified G6PDH [2]: 72% | inhibition of growth ([3]; 0-200 μM DHEA, 0-72 hours): time- and dose-dependent inhibition of growth | exposure time after which cell number was reduced compared to controls ([3]; 12.5 μM DHEA): 72 h | exposure time after which cell number was reduced compared to controls ([3]; 200 μM DHEA): 24 h | exposure time after which cell number was reduced compared to controls ([3]; 25 or 50 μM DHEA): 48 h

From US20070021360A1, “Compositions, formulations and kit with anti-sense oligonucleotide and anti-inflammatory steroid and/or obiquinone for treatment of respiratory and lung disesase” (priority 2001, published 2007)
